Test results from article PMC3131786 (Journal of Medicinal Chemistry, 2011).
Values belong to the molecule of their own block, whether it stands above or below them.

Tests used:
[1] = tested on: ATX; settings: ATX activity fully restored upon washing out the inhibitor; cited from earlier work
[2] = molecular target: recombinant ATX (Homo sapiens, UniProt Q13822); assay: Choline release assay; assay type: biochemical; settings: for residual ATX activity: at maximal inhibition in the dose-response curve (Figure S3)
[3] = cited from earlier work

shape of dose-response curve ([2]; Figure S2, n=5): biphasic curve
Molecule: O=C(Nc1ccc(B(O)O)cc1)c1ccc(/C=C2\SC(=O)N(Cc3ccc(F)cc3)C2=O)cc1 [inhibitor 17]

residual ATX activity [2]: 10%
Molecule: O=C(Nc1ccc(/C=C2\SC(=O)N(Cc3ccc(F)cc3)C2=O)cc1)c1ccc(B(O)O)cc1 [inhibitor 19]

residual ATX activity [2]: no residual ATX activity
Molecule: O=C1S/C(=C\c2ccc(NCc3ccc(B(O)O)cc3)cc2)C(=O)N1Cc1ccc(F)cc1 [inhibitor 36]

Second part, the molecule before the results:

Molecule: O=C1S/C(=C\c2ccc(OCc3ccc(B(O)O)cc3)cc2)C(=O)N1Cc1ccc(F)cc1 [inhibitor 1, (Z)-4-[(4-{[3-(4-Fluorobenzyl)-2,4-dioxo-1,3-thiazolan-5-yliden]methyl}phenoxy)methyl]benzene Boronic Acid]
reversibility of binding to ATX [1]: reversible

Molecule: lysophosphatidic acid [LPA]
half-life of LPA in vivo [3]: ~5 min
